Data as given in patent publication US5260321A, “Use of 1,4-dihydropyridine derivatives and combinations thereof with calcitonins” (priority 1984, dated 1993).

Tests used:
Assay type in all cases: in vivo
total calcium = assay: Rabbit intravenous experiment repeated, total calcium measured photometrically; details: intravenous infusion, photometric
Method: (§1) The effect of the compounds of the invention in lowering calcium levels is indicated in any standard animal test for hypercalcemic activity. In one test the compound is administered to rabbits (e.g. ca. 1 kg in weight) either as a suspension e.g. 0.1 to 5 mg (e.g. 0, 1 mg) per ml of solution (i.e. blood plasma with ca. 1-5% alcohol) and 0.1-5 mg/kg animal body weight by intravenous infusion (0.5 ml per hour) or orally e.g. 1 to 5 mg/kg animal body weight as a suspension in distilled water. A significant lowering of calcium ions is observed using standard measuring techniques for calcium ions in the blood, e.g. using a calcium ion selective electrode, or by photometric methods.
The intravenous experiment is repeated measuring total calcium photometrically. Drop in calcium levels over 11/2 hours=23%, over 21/2 hours=30%.

[1] = tested on: ionized calcium concentration in the blood; assay: Rabbit test: ionized calcium in blood by calcium ion selective electrode; details: PN alone
Method: as §1
One method for measuring calcium ion concentrations is as follows: […]
The concentration of ionized calcium in the blood is measured potentiometrically as follows: The difference in potential between the reference electrode and the Ca^2+ -selective electrode is measured differentially relative to the common electrode. The difference is amplified and the analogue signal produced by the amplifier is processed by a digital voltmeter and continuously recorded as a function of time, the difference in voltage being proportional to the Ca^2+ concentration. […]

[2] = tested on: neointimal lesion development in the rat carotid artery; assay: Inhibition of neointimal lesion development in the rat carotid artery (balloon catheterization test); details: for Maximal intimal height: mean ± SD
Method: The anti-atherogenic activity has been confirmed also by measurement of the inhibition of neointimal lesion development in the rat carotid artery (balloon catheterization test, essentially as published in A. W. Clowes et al., Lab. Invest. 49 [1983]208-215).
In a first experiment a group of 12 rats was given PN 250 μg/kg/day in 10% ethanol-water s.c. A control group of 9 animals was non-injected and a further control group of 7 animals was vehicle-injected. Animals were randomized into 3 groups for catheterization and were weighed every other day throughout the study. Rats were anesthetized with ether inhalation. The […] region was shaved and the external branch of the left common carotid artery was isolated by an incision from the lower mandible to the clavicle, followed by retracting the submaxillary gland (lateral) and several muscle bundles including the sternohyoideus (medial), sternomastoideus (lateral) and digastricus posterior belly (lateral). […] Lidocaine was applied to vasodilate during catheter introduction. Following an incision with iris scissors, a Fogarty arterial embolectomy catheter (No. 2F) was inserted into the external branch of the carotid, passed into the aortic arch and slightly withdrawn to assure inflation of the catheter within the common carotid artery. The catheter was inflated using approximately 900 mmHg air pressure, drawn distally and deflated. This was repeated three times to assure complete de-endothelialization of the common carotid. The catheter was removed, the artery ligated and the incision closed. Under these conditions the carotid is completely de-endothelialized.
Animals were sacrificed 14 days after ballooning in the same sequence as the catheterization. Thirty minutes before fixation the animals were injected with a 2.25% Evan's Blue dye solution (1.5 mg/kg iv) to differentiate between the neointimal and re-endothelialized areas. Areas of the carotid that have endothelial regrowth exclude the dye and appear white. The remaining areas that lack endothelium are stained blue. Whole body (beating heart) perfusion fixations (90-110 mmHg) were then performed on anesthetized (sodium pentobarbital, 50.0 mg/kg ip) animals using 200 ml of 1% glutaraldehyde in 0.15M sodium cacodylate buffer (pH 7.4, 37° C., 410 mOsm) followed by 400 ml of 3% glutaraldehyde in 0.15M sodium cacodylate. The entry site of the fixative was a puncture in the left ventricle, with efflux collected by vacuum suction from the right atrium. The thoracic aorta flow was restricted to optimize carotid perfusion. Successful fixation was judged by upper body rigidity and an absence of blood from the large arteries.
In a second experiment the procedure as described above was followed, with groups consisting of non-injected controls (n=8), animals treated with PY (n=5) or PN (n=8). Animals received drug for 2 days before catheterization and to the conclusion of the study (14 days). PY and PN were given at 1.0 mg/kg in 10% EtOH-water s.c. All animals (controls and drug-treated) were randomized into 3 groups for catheterization.
After each experiment the fixed carotid was removed and cut into 3 segments (distal, central, proximal). Tissue processing of only the central segment included 18 hours in 3% buffered glutaraldehyde, buffer rinsing, dehydration in an ascending ethanol series and infiltration with Spurr's resin. The samples were embedded with cross-sectional orientation so that sectioning (0.5 μm) would include blue areas which have not re-endothelialized and show continued proliferative responses. A two-step polychromatic stain utilizing toluidine blue and 1.0% basic fuchsin rendered histological differentiation to nuclear, cytoplasmic and extracellular connective matrix components.
All light microscopic histology slides were randomized, encoded and evaluated utilizing a Zeiss standard microscope and the Videoplan computerized image analyzer. Vessel measurements included maximum lesion height. […]

[3] = Expt. 2, 1.0 mg/kg s.c. from 2 days before catheterization to day 14, controls 72.4 ± 17.4

Row | Compound | Drop in calcium levels (total calcium) (total calcium; over 11/2 hours) [%] | Drop in calcium levels (total calcium) (total calcium; over 21/2 hours) [%] | Lowering of ionized calcium ([1]; intravenous infusion, 0.5 mg/0.5/over 1 hour) | Lowering of ionized calcium ([1]; oral 1 mg/kg) | Inhibition of lesion development ([2]; Expt. 1, 0.25 mg/kg/d) [%] | Maximal intimal height ([2]; Expt. 1, 0.25 mg/kg/day s.c., 14 days after ballooning, controls 84.9 ± 21.3) [μm] | Maximal intimal height [2, 3] [μm] | Inhibition of lesion development ([2]; Expt. 2, 1.0 mg/kg/d) [%] | Tolerability ([2]; rats, s.c., all doses used (0.25 and 1.0 mg/kg))
1 | COC(=O)C1=C(C)NC(C)=C(C(=O)OC(C)C)C1c1cccc2nonc12 (centres unmarked) [PN, 4-(2,1,3-benzoxadiazol-4yl)-1,4-dihydro-2,6-dimethyl-3-methoxycarbonyl-pyridine-5-carboxylic acid isopropyl ester] | 23 | 30 | 10-20% | 5-10% | 26 | 63.2 ± 19.9 | 38.9 ± 22.0 | 46 | –
2 | CCOC(=O)C1=C(C)NC(C)=C(C(=O)OCC)C1c1cccc2nonc12 [PY, 4-(2,1,3-benzoxadiazol-4-yl)-1,4-dihydro-2,6-dimethylpyridine-3,5-dicarboxylic acid diethyl ester] | – | – | – | – | – | – | 58.6 ± 18.1 | 19 | tolerated at all doses used
